According to patent publication US20100209345A1, “Fluorinated Ligands for Targeting Peripheral Benzodiazepine Receptors” (Australian Nuclear Science & Technology Organisation, priority 2006, published 2010):

How the values were obtained:
[1] = target: central benzodiazepine receptors; experiment: In vitro binding, [3H]-Flumazenil, brain cortex membrane preparation; settings: [3H]-Flumazenil (2 nM), 25° C., 45 min, read-out: CBR IC50
Summary of the method: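 Brain cortex membranes bound with [3H]-flumazenil; non-specific binding defined by 20 μM flumazenil. Filtration on GF/B, washes in ice-cold 50 mM Tris/HCl pH 7.4, bound counts by scintillation, IC50 derived from displacement.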

[2] = Biodistribution of 18F-labelled tracers in rats; type: in vivo
Summary of the method: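 Sprague-Dawley rats received 18F tracer, and brain and peripheral tissues were analysed at 15 and 30 min and 1 and 4 h post-injection. For specificity, rats were pretreated 5 min beforehand with PK11195 or Ro 5-4864 (PBR) or flumazenil (CBR), each at 1 mg/kg.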

[3] = SD rats, 15 min, decay correction not stated
[4] = SD rats, 4 hours, decay correction not stated
[5] = rats, 15 min, corrected for decay of 18F
[6] = rats, 15 min, not corrected for decay of 18F
[7] = rats, 30 min, corrected for decay of 18F
[8] = rats, 30 min, not corrected for decay of 18F
[9] = rats, 60 min (1 hour), not corrected for decay of 18F
[10] = rats, 60 min, corrected for decay of 18F
[11] = rats, 4 hours, corrected for decay of 18F
[12] = rats, 4 hours, not corrected for decay of 18F

SMILES: CCN(CC)C(=O)Cc1c(-c2ccc(OCCF)cc2)nc2ccc(Cl)cn12 [PBR102, 2-(2-(4-(2-fluoroethoxy)phenyl)-6-chloroimidazo[1,2-a]pyridin-3-yl)-N,N-diethylacetamide]
- IC50 [1]: 1560 nM
- Biodistribution: Bone [2, 3]: 0.4 % ID/g
- Biodistribution: Kidney [2, 3]: 4.5 % ID/g
- Biodistribution: Olfactory bulbs [2, 3]: 0.56 % ID/g
- Biodistribution: Adrenals ([2]; SD rats, 30 min, decay correction not stated): 9 % ID/g
- Biodistribution: Adrenals [2, 4]: 11 % ID/g
- Biodistribution: Bone [2, 4]: 1.0 % ID/g
- Biodistribution: Kidney [2, 4]: 1.3 % ID/g
- Biodistribution: Olfactory bulbs [2, 4]: 0.40 % ID/g
- Blood activity level / concentration in the blood over the 4 h study period ([2]; SD rats, throughout 15 min to 4 h): 0.20%
- Biodistribution: Bone [2, 5]: 0.46 ± 0.04 % ID/g
- Biodistribution: Heart [2, 5]: 4.35 ± 0.33 % ID/g
- Biodistribution: Lungs [2, 5]: 14.30 ± 1.45 % ID/g
- Biodistribution: Skin [2, 5]: 0.24 ± 0.03 % ID/g
- Biodistribution: Adrenals [2, 6]: 8.30 ± 2.13 % ID/g
- Biodistribution: Bladder [2, 6]: 0.59 ± 0.14 % ID/g
- Biodistribution: Blood [2, 6]: 0.25 ± 0.06 % ID/g
- Biodistribution: Bone [2, 6]: 0.56 ± 0.07 % ID/g
- Biodistribution: Brain [2, 6]: 0.24 ± 0.03 % ID/g
- Biodistribution: GIT [2, 6]: 0.82 ± 0.11 % ID/g
- Biodistribution: Heart [2, 6]: 5.23 ± 0.33 % ID/g
- Biodistribution: Kidney [2, 6]: 3.90 ± 0.53 % ID/g
- Biodistribution: Liver [2, 6]: 0.75 ± 0.21 % ID/g
- Biodistribution: Lungs [2, 6]: 17.25 ± 1.70 % ID/g
- Biodistribution: Muscle [2, 6]: 0.49 ± 0.03 % ID/g
- Biodistribution: Olfactory bulbs [2, 6]: 0.68 ± 0.12 % ID/g
- Biodistribution: Pancreas [2, 6]: 1.74 ± 0.22 % ID/g
- Biodistribution: Skin [2, 6]: 0.29 ± 0.05 % ID/g
- Biodistribution: Spleen [2, 6]: 5.35 ± 0.89 % ID/g
- Biodistribution: Stomach [2, 6]: 0.80 ± 0.19 % ID/g
- Biodistribution: Testes [2, 6]: 0.22 ± 0.02 % ID/g
- Biodistribution: Thymus [2, 6]: 0.68 ± 0.17 % ID/g
- Biodistribution: Thyroid [2, 6]: 7.74 ± 1.90 % ID/g
- Biodistribution: Bone [2, 7]: 0.52 ± 0.05 % ID/g
- Biodistribution: Heart [2, 7]: 4.44 ± 0.26 % ID/g
- Biodistribution: Lungs [2, 7]: 12.10 ± 1.98 % ID/g
- Biodistribution: Skin [2, 7]: 0.31 ± 0.03 % ID/g
- Biodistribution: Adrenals [2, 8]: 9.75 ± 1.53 % ID/g
- Biodistribution: Bladder [2, 8]: 0.67 ± 0.16 % ID/g
- Biodistribution: Blood [2, 8]: 0.21 ± 0.03 % ID/g
- Biodistribution: Bone [2, 8]: 0.64 ± 0.12 % ID/g
- Biodistribution: Brain [2, 8]: 0.20 ± 0.04 % ID/g
- Biodistribution: GIT [2, 8]: 1.07 ± 0.26 % ID/g
- Biodistribution: Heart [2, 8]: 5.41 ± 0.71 % ID/g
- Biodistribution: Kidney [2, 8]: 3.95 ± 1.01 % ID/g
- Biodistribution: Liver [2, 8]: 0.63 ± 0.21 % ID/g
- Biodistribution: Lungs [2, 8]: 14.80 ± 3.67 % ID/g
- Biodistribution: Muscle [2, 8]: 0.46 ± 0.08 % ID/g
- Biodistribution: Olfactory bulbs [2, 8]: 0.44 ± 0.05 % ID/g
- Biodistribution: Pancreas [2, 8]: 1.42 ± 0.45 % ID/g
- Biodistribution: Skin [2, 8]: 0.37 ± 0.05 % ID/g
- Biodistribution: Spleen [2, 8]: 4.68 ± 0.90 % ID/g
- Biodistribution: Stomach [2, 8]: 0.71 ± 0.21 % ID/g
- Biodistribution: Testes [2, 8]: 0.29 ± 0.05 % ID/g
- Biodistribution: Thymus [2, 8]: 0.81 ± 0.06 % ID/g
- Biodistribution: Thyroid [2, 8]: 10.70 ± 2.08 % ID/g
- Biodistribution: Adrenals [2, 9]: 7.88 ± 1.86 % ID/g
- Biodistribution: Bladder [2, 9]: 0.60 ± 0.11 % ID/g
- Biodistribution: Blood [2, 9]: 0.20 ± 0.03 % ID/g
- Biodistribution: Bone [2, 9]: 0.73 ± 0.13 % ID/g
- Biodistribution: Brain [2, 9]: 0.20 ± 0.03 % ID/g
- Biodistribution: GIT [2, 9]: 1.09 ± 0.13 % ID/g
- Biodistribution: Heart [2, 9]: 5.32 ± 0.74 % ID/g
- Biodistribution: Kidney [2, 9]: 3.10 ± 0.51 % ID/g
- Biodistribution: Liver [2, 9]: 0.40 ± 0.04 % ID/g
- Biodistribution: Lungs [2, 9]: 13.44 ± 2.71 % ID/g
- Biodistribution: Muscle [2, 9]: 0.39 ± 0.07 % ID/g
- Biodistribution: Olfactory bulbs [2, 9]: 0.52 ± 0.05 % ID/g
- Biodistribution: Pancreas [2, 9]: 0.88 ± 0.18 % ID/g
- Biodistribution: Skin [2, 9]: 0.43 ± 0.07 % ID/g
- Biodistribution: Spleen [2, 9]: 3.89 ± 0.54 % ID/g
- Biodistribution: Stomach [2, 9]: 0.52 ± 0.13 % ID/g
- Biodistribution: Testes [2, 9]: 0.37 ± 0.06 % ID/g
- Biodistribution: Thymus [2, 9]: 0.91 ± 0.16 % ID/g
- Biodistribution: Thyroid [2, 9]: 11.55 ± 4.24 % ID/g
- Biodistribution: Bone [2, 10]: 0.64 ± 0.07 % ID/g
- Biodistribution: Heart [2, 10]: 4.62 ± 0.27 % ID/g
- Biodistribution: Lungs [2, 10]: 11.63 ± 1.52 % ID/g
- Biodistribution: Skin [2, 10]: 0.37 ± 0.03 % ID/g
- Biodistribution: Bone [2, 11]: 1.01 ± 0.09 % ID/g
- Biodistribution: Heart [2, 11]: 2.82 ± 0.15 % ID/g
- Biodistribution: Lungs [2, 11]: 8.09 ± 1.14 % ID/g
- Biodistribution: Skin [2, 11]: 0.49 ± 0.03 % ID/g
- Biodistribution: Adrenals [2, 12]: 9.77 ± 2.42 % ID/g
- Biodistribution: Bladder [2, 12]: 1.08 ± 0.14 % ID/g
- Biodistribution: Blood [2, 12]: 0.26 ± 0.03 % ID/g
- Biodistribution: Bone [2, 12]: 1.22 ± 0.22 % ID/g
- Biodistribution: Brain [2, 12]: 0.23 ± 0.03 % ID/g
- Biodistribution: GIT [2, 12]: 1.43 ± 0.34 % ID/g
- Biodistribution: Heart [2, 12]: 3.38 ± 0.44 % ID/g
- Biodistribution: Kidney [2, 12]: 1.61 ± 0.29 % ID/g
- Biodistribution: Liver [2, 12]: 0.34 ± 0.05 % ID/g
- Biodistribution: Lungs [2, 12]: 10.26 ± 1.09 % ID/g
- Biodistribution: Muscle [2, 12]: 0.27 ± 0.03 % ID/g
- Biodistribution: Olfactory bulbs [2, 12]: 0.50 ± 0.13 % ID/g
- Biodistribution: Pancreas [2, 12]: 0.49 ± 0.12 % ID/g
- Biodistribution: Skin [2, 12]: 0.59 ± 0.06 % ID/g
- Biodistribution: Spleen [2, 12]: 2.29 ± 0.50 % ID/g
- Biodistribution: Stomach [2, 12]: 0.49 ± 0.13 % ID/g
- Biodistribution: Testes [2, 12]: 0.52 ± 0.06 % ID/g
- Biodistribution: Thymus [2, 12]: 1.21 ± 0.27 % ID/g
- Biodistribution: Thyroid [2, 12]: 8.29 ± 3.22 % ID/g
